{
  "source": "paper PMC7307906",
  "about": "“Macrocyclic Modalities Combining Peptide Epitopes and Natural Product Fragments” (Journal of the American Chemical Society, 2020)",
  "key": {"human MC1R": {"biological_target": "T1, human MC1R (Homo sapiens, UniProt Q01726)", "T1 construct": "expressed in transfected cells", "T1 sequence (Q01726 whole entry)": "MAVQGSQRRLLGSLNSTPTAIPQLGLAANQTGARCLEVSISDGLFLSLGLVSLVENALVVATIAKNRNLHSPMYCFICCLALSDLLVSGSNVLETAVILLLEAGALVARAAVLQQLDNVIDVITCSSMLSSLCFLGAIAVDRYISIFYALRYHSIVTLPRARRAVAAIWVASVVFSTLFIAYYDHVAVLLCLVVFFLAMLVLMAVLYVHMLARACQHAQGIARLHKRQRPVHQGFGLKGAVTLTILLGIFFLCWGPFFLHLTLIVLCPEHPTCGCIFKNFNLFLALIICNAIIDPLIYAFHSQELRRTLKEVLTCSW", "assay": "cAMP assay (LANCE) in T-Rex-293 cells expressing MC1R", "type": "cell-based", "conditions": "for Emax: T-REx-293, read-out: % Effect hMC1R cAMP"}, "[1]": {"conditions": "other bond, resin"}, "[2]": {"conditions": "the molecule shown is the open-chain precursor, 34-membered ring, CH(OMe)3/Et3N, then 6/LiBr/Et3N, DMF, THF, 25.0 °C, with chain assembly"}},
  "note": "Where two headings read alike, the source gives them in different places.",
  "data": [
    {"compound": "CN1C(=O)[C@@H]2N[C@H](c3ccc(cc3)C(=O)NCCCC[C@@H](C(=O)N[C@@H](Cc3ccc(O)cc3)C(N)=O)NC(=O)[C@@H](Cc3ccccc3)NC(=O)[C@@H](Cc3ccccc3)NC(=O)[C@H](CCCNC(=N)N)NC(=O)[C@@H]1Cc1ccccc1)[C@@H]1C(=O)N(c3ccccc3)C(=O)[C@@H]12", "note": "[O2-major, [II-FRffK ]Y]", "values": [
      {"measurement": "Emax", "setting": "human MC1R", "result": 62, "unit": "%"}
    ]},
    {"compound": "C[C@@H]1NC(=O)[C@H](CC(N)=O)NC(=O)[C@@H](Cc2ccccc2)NC(=O)[C@@H](Cc2ccccc2)NC(=O)[C@H](CCCNC(=N)N)NC(=O)[C@H](Cc2ccccc2)N(C)C(=O)[C@@H]2N[C@H](c3ccc(cc3)C(=O)NCCCC[C@@H](C(=O)N[C@@H](Cc3ccc(O)cc3)C(N)=O)NC(=O)[C@H](Cc3ccccc3)NC1=O)[C@]1(C(=O)Nc3ccccc31)[C@H]2c1ccccc1", "note": "[C2-major, [X-FRffNAFK ]Y]", "values": [
      {"measurement": "Emax", "setting": "human MC1R", "result": 57, "unit": "%"}
    ]},
    {"compound": "CCCC[C@H](NC(C)=O)C(=O)N[C@H]1CC(=O)NCCCC[C@@H](C(=O)O)NC(=O)[C@H](Cc2c[nH]c3ccccc23)NC(=O)[C@H](CCCNC(=N)N)NC(=O)[C@@H](Cc2ccccc2)NC(=O)[C@H](Cc2c[nH]cn2)NC1=O", "note": "[Bremelanotid (BreMT), Bremelanotid, reference compound]", "values": [
      {"measurement": "% Effect hMC1R cAMP", "setting": "human MC1R; Emax (curve plateau), relative to NDP-α-MSH, NA = No Activity detected, threshold 20% effect", "result": 97, "unit": "%"}
    ]},
    {"compound": "C[C@@H]1NC(=O)[C@H](CC(N)=O)NC(=O)[C@@H](Cc2ccccc2)NC(=O)[C@@H](Cc2ccccc2)NC(=O)[C@H](CCCNC(=N)N)NC(=O)[C@H](Cc2ccccc2)N(C)C(=O)C2NC(c3ccc(cc3)C(=O)NCCCC[C@@H](C(=O)N[C@@H](Cc3ccc(O)cc3)C(N)=O)NC(=O)[C@H](Cc3ccccc3)NC1=O)C1(C(=O)Nc3ccccc31)C2c1ccccc1", "note": "(stereo partly shown) [C2-minor, [X-FRffNAFK ]Y]", "values": [
      {"measurement": "Emax", "setting": "human MC1R", "result": 36, "unit": "%"}
    ]},
    {"compound": "[N-Me-fused-di-pyrrolidine-NMeFGLGFK]F", "values": [
      {"measurement": "ring closure, yield after HPLC", "setting": "[1]; N-methylmaleimide (RP-04; imine cyclization/1,3-dipolar cycloaddition), 4 steps", "result": 5, "unit": "%"}
    ]},
    {"compound": "[Ph-pyrrolidinyl-spirooxindole-NMeFRffNAK]G", "values": [
      {"measurement": "ring closure, yield after HPLC", "setting": "[1]; (E)-3-benzylidene-indolin-2-one (RP-04; imine cyclization/1,3-dipolar cycloaddition), 4 steps", "result": 5, "unit": "%"}
    ]},
    {"compound": "[N-Me-fused-di-pyrrolidine-NMeFFLK]G, P1", "values": [
      {"measurement": "ring closure, yield after HPLC", "setting": "[1]; imine formation, then N-methylmaleimide cycloaddition (RP-04), with chain assembly", "result": 4, "unit": "%"}
    ]},
    {"compound": "[N-Ph-fused-di-pyrrolidine-NMeFDINNNK]G", "values": [
      {"measurement": "ring closure, yield after HPLC", "setting": "[1]; Fmoc removal (RP-03), imine cyclization/1,3-dipolar cycloaddition, N-phenylmaleimide (RP-04), 4 steps", "result": 5, "unit": "%"}
    ]},
    {"compound": "H-Gly-MePhe-Arg-dPhe-dPhe-Asn-Ala-Lys(4-formylbenzoyl)-Tyr-resin?", "values": [
      {"measurement": "ring closure, yield after HPLC", "setting": "[1]; [2]", "result": 2, "unit": "%"}
    ]},
    {"compound": "H-Gly-MePhe-Arg-dPhe-dPhe-Asn-Ala-Phe-Lys(4-formylbenzoyl)-Tyr-resin?", "values": [
      {"measurement": "ring closure, yield after HPLC", "setting": "[1]; the molecule shown is the open-chain precursor, 37-membered ring, CH(OMe)3/Et3N, then 6/LiBr/Et3N, DMF, THF, 25.0 °C, with chain assembly", "result": 2, "unit": "%"},
      {"measurement": "ring closure, yield after HPLC", "setting": "[1]; the molecule shown is the open-chain precursor, 37-membered ring, CH(OMe)3/Et3N, then 11/LiBr/Et3N, DMF, THF, 25.0 °C, with chain assembly", "result": 1, "unit": "%"}
    ]},
    {"compound": "H-Gly-Phe-Asp-Ile-Asn-Asn-Asn-Lys(4-formylbenzoyl)-Gly-resin?", "values": [
      {"measurement": "ring closure, yield after HPLC", "setting": "[1]; [2]", "result": 2, "unit": "%"}
    ]},
    {"compound": "[N-Me-fused-di-pyrrolidine-NMeFDINNNOrn]G", "values": [
      {"measurement": "ring closure, yield after HPLC", "setting": "[1]; 33-membered ring, imine formation, then N-methylmaleimide cycloaddition (RP-04), with chain assembly", "result": 13, "unit": "%"}
    ]}
  ]
}
